Source: paper PMC12974487, “Inhibition of FicD-mediated AMPylation and deAMPylation by isoprenoid diphosphates” (Proceedings of the National Academy of Sciences of the …, 2026)
Numbering of substitutions follows the chain as printed. “Also recorded” adds a separate entry of the source.

Key:
FicD^R371S [1] = molecular target: T1, FicD^R371S (Homo sapiens, UniProt Q9BVA6, R371S); assay: AMPylation of Δ26hBiP^T229A by pathogenic variant FicD^R371S; type: biochemical; conditions: indicated concentrations of FPP
T1 construct: Wild-type FicD (residues 105-458) and all mutants were expressed as N-terminal 6xHis-Sumo fusions; 6xHis-Sumo (N, cleaved yes); made in house; host or cells: Rosetta(DE3) E. coli
T1 sequence (Q9BVA6 105-458 R371S): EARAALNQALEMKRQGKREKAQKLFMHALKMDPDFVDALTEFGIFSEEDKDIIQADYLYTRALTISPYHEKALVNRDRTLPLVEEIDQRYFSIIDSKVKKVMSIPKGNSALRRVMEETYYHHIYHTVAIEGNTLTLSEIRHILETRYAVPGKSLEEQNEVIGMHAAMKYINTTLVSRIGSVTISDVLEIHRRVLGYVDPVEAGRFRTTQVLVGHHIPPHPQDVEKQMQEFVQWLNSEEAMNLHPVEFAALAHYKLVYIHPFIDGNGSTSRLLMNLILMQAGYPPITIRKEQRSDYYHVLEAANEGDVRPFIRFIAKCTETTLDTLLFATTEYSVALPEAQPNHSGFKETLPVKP
Source text: (§1) Fig. 5. Crystal structure of FPP inhibitor bound to FicD active site. […] FPP (cyan stick) and Mg^2+ (cyan sphere) in the pocket of FicD shown as APBS electrostatic surface with positive areas in blue, negative in red, and neutral in white (contour level: ±5 kBT/e) (Right). […] (C–E) AMPylation assays of Δ26hBiP^T229A in the presence of the indicated concentration of FPP using the pathogenic human variants (C) FicD^R371S, (D) FicD^R374H and (E) FicD^R374C. AMPylated BiP and Fic were quantified by immunodetection, and total BiP was quantified by CBB. […]
(§2) Isothermal Titration Calorimetry
(§3) Proteins were dialyzed against 25mM HEPES pH 7.4/100mM KCl/10% glycerol prior to titration. […]
(§4) MgCl2 was added to […]
(§5) proteins to a final concentration of 4mM. ITC experiments were performed in a Micro-Cal PEAQ-ITC (Malvern Panalytical, Worcestershire, UK) calorimeter with a stirred 206.2 μL reaction cell held at 20 °C. 250μM FPP was titrated into 25uM Δ104hFicL258D with 750rpm stirring. The first injection was 0.5 μL, followed by twenty 1.9 μL injections. […]
(§6) Thermogram and binding figures were plotted in
(§7) For AMPylation assays with FicD and BiP, Δ104FicDWT and Δ26hBiPT229A were combined at a ratio of 1:80 in buffer containing 25mM HEPES pH 7.4, 100mM KCl, 5mM MgCl2, 500μM ATP, 1mM DTT, and small molecule where indicated. Assays with Δ104FicDWT were incubated for 1 hour. […]

FicD^R374C = molecular target: T2, FicD^R374C (Homo sapiens, UniProt Q9BVA6, R374C); assay: AMPylation of Δ26hBiP^T229A by pathogenic variant FicD^R374C; type: biochemical; conditions: indicated concentrations of FPP
T2 construct: Wild-type FicD (residues 105-458) and all mutants were expressed as N-terminal 6xHis-Sumo fusions; 6xHis-Sumo (N, cleaved yes); made in house; host or cells: Rosetta(DE3) E. coli
T2 sequence (Q9BVA6 105-458 R374C): T1 sequence (Q9BVA6 105-458 R371S) with S267R, R270C
Source text: as §1, §2, §3, §4, §5, §6, §7

FicD^R371S [2] = molecular target: T1, FicD^R371S; assay: DSF with FicD^R371S variant; type: binding; conditions: addition of 5 mM MgCl2, any concentration tested
FicD^E234G, L258D = molecular target: T3, FicD^E234G, L258D (Homo sapiens, UniProt Q9BVA6, E234G/L258D); assay: DSF thermal shift with FicD^E234G, L258D; type: binding
T3 construct: Wild-type FicD (residues 105-458) and all mutants were expressed as N-terminal 6xHis-Sumo fusions; 6xHis-Sumo (N, cleaved yes); made in house; host or cells: Rosetta(DE3) E. coli
T3 sequence (Q9BVA6 105-458 E234G/L258D): T1 sequence (Q9BVA6 105-458 R371S) with E130G, L154D, S267R

## CC(C)=CCC/C(C)=C/CC/C(C)=C/COP(=O)(O)OP(=O)(O)O [FPP, farnesyl-pyrophosphate]
FicD^R371S [1]
  FPP inhibition of FicD^R371S AMPylation activity: total loss of FPP inhibition
FicD^R374C
  FPP inhibition of FicD^R374C mediated AMPylation: inhibition; also recorded: inhibited
FicD^R371S [2]
  binding to FicD^R371S by DSF: did not confer FPP binding
FicD^E234G, L258D; absence of MgCl2
  binding to FicD^E234G, L258D by DSF: bound
FicD^E234G, L258D; presence of 5 mM MgCl2
  binding to FicD^E234G, L258D by DSF: bound
